Reference: publication PMC12562567, “Comparative Efficacy of CK2 Inhibitors CX-4945 and SGC-CK2-2 on CK2 Signaling” (International Journal of Molecular Sciences, 2025)
Read-outs that look alike come from different tables or passages of the source. Each block holds one molecule with its values, some of them ahead of it.

How the values were obtained:
[1] = cited from earlier work
[2] = parameters: method as in PMID 37901516; conditions: 30 min of incubation; cited from earlier work
[3] = system: CSNK2A1; parameters: method as in PMID 41883516; conditions: cited from earlier work
[4] = system: phospho-Akt1 S129; assay: Western blot of phospho-Akt1 S129 (CK2 substrate) in HeLa cells; assay type: cell-based, human; conditions: for IC50: Homo sapiens, read-out: IC50 pS129 AKT phosphorylation
Excerpt: (§1) . These substrates were selected based on their different responses to kinase inhibition. S129Akt was described in 2015 as a specific CK2 substrate, and its phosphorylation is highly sensitive to CK2 inhibition showing a strong early reduction. On the contrary, S13-cdc37, described in 2004 as a CK2-specific substrate, requires higher inhibitor concentrations or longer exposure times to achieve a significant impact on its phosphorylation. The phosphorylation of both substrates is reduced in CK2-knockout cells. Moreover, to gain a more comprehensive view of CK2 substrate phosphorylation, we used a phosphoantibody developed against p-Ser/p-Thr containing a CK2 consensus sequence (pS/pTDXE motif).

[5] = system: MDA-MB-231 cells; assay: MTT cell viability assay, MDA-MB-231; assay type: cell-based; conditions: for Effect on cell viability (reduction): MDA cells, 2.5 µM
Procedure: (§2) One hour before the end of the incubations, 10 μL of MTT solution (5 mg/mL in PBS) was added to each well. […] Plates were read at λ 540 nm absorbance, in a Titertek Multiskan Plus plate reader (Flow Laboratories, Sutton, UK).

[6] = system: phospho-cdc37 S13; assay: Western blot of phospho-cdc37 S13 (CK2 substrate) in MDA-MB-231 cells; assay type: cell-based; conditions: Homo sapiens, read-out: IC50 pS13 cdc37 phosphorylation
Excerpt: (§3) We repeated the same treatments using a different cell line, breast cancer MDA-MB-231. […] . Even though MDA-MB-231 was less responsive to the two CK2 inhibitors than HeLa cells, the overall outcome appeared similar. […] .

[7] = system: PARP-1; assay: PARP-1 degradation/cleavage by Western blot, HeLa; conditions: HeLa cells
[8] = system: HeLa cells; assay: MTT cell viability assay, HeLa; assay type: cell-based, human
Procedure: as §2

[9] = system: phospho-Akt1 S129; assay: Western blot of phospho-Akt1 S129 (CK2 substrate) in MDA-MB-231 cells; assay type: cell-based; conditions: for IC50: Homo sapiens, read-out: IC50 pS129 AKT phosphorylation
Excerpt: as §3

[10] = system: phospho-cdc37 S13; assay: Western blot of phospho-cdc37 S13 (CK2 substrate) in HeLa cells; assay type: cell-based, human; conditions: 24 h
Excerpt: as §1

[11] = parameters: method as in PMID 37077385; conditions: preliminary proliferation assays; cited from earlier work
[12] = system: PARP-1; assay: PARP-1 degradation/cleavage by Western blot, MDA-MB-231; assay type: cell-based; conditions: MDA-MB-231 cells
[13] = MDA-MB-231 cells, 24 h, densitometry of Western blot

Compound: CCC(=O)Nc1cc(Nc2cc(NC3CC3)n3ncc(C#N)c3n2)ccc1C [SGC-CK2-1]
Aqueous solubility [1]: moderate
Compound degraded in vitro in mouse liver microsomes [2]: 60%
Significantly downregulated phosphopeptides determined to be CSNK2A1 dependent ([3]; after 4 h of treatment): 55%
Significantly downregulated phosphopeptides determined to be CSNK2A1 dependent ([3]; after 24 h of treatment): 55%

IC50 ([4]; HeLa cells, 24 h, densitometry of Western blot): 0.7 µM
IC50 [6, 13]: 4.4 µM
IC50 [9, 13]: 0.9 µM
IC50 ([10]; Homo sapiens, HeLa cells, densitometry of Western blot, read-out: IC50 pS13 cdc37 phosphorylation): 3 µM
Compound: O=C(O)c1ccc2c(c1)nc(Nc1cccc(Cl)c1)c1ccncc12 [CX-4945]
Phosphorylation of Akt at Ser129 ([4]; HeLa cells, 2.5 µM (lowest concentration tested), 24 h): completely abolished
Effect on cell viability (reduction) ([5]; 24 h, MTT): ~ 5%
Effect on cell viability (reduction) ([5]; 48 h, MTT): ~ 15%
Concentration at which PARP-1 degradation (reduction in total PARP-1) is visible ([7]; 24 h): 10 µM
Concentration at which PARP-1 degradation (reduction in total PARP-1) is visible ([7]; 48 h): 5 µM
Concentration at which the 89 KDa PARP fragment is detected ([7]; after 48 h (first mention (so in the source))): 5 µM
Concentration at which the 89 KDa PARP fragment is detected ([7]; after 48 h (second mention)): 2.5 µM
Effect on cell viability (reduction) ([8]; HeLa cells, 2.5 µM, 24 h, MTT): ~ 20%
Effect on cell viability (reduction) ([8]; HeLa cells, 2.5 µM, 48 h, MTT): ~ 30%
Significantly downregulated phosphopeptides determined to be CSNK2A1 dependent ([3]; after 4 h of treatment): 15%
Significantly downregulated phosphopeptides determined to be CSNK2A1 dependent ([3]; after 24 h of treatment): 5%

Compound: O=C(O)c1ccc2c(c1)nc(NCc1ccccc1)c1ncncc12 [SGC-CK2-2]
Concentration that nearly abolishes Akt S129 phosphorylation ([4]; HeLa, 24 h treatment): 2.5 µM
IC50 ([4]; HeLa, 24 h): 2.2 µM
Effect on cell viability ([5]; MDA, 5 µM, 24 h treatment): no significant effect
Reduction in cell viability achieved ([5]; MDA-MB-231 cells, 24 h, all concentrations tested (up to 40 µM), MTT): < 50%
IC50 ([6]; MDA-MB-231, 24 h): 20.4 µM
Aqueous kinetic solubility relative to SGC-CK2-1 [1]: markedly improved
Concentration at which PARP-1 degradation (reduction in total PARP-1) is visible ([7]; 24 h): 40 µM
Concentration at which PARP-1 degradation (reduction in total PARP-1) is visible ([7]; 48 h): 20 µM
Reduction in cell viability achieved ([8]; HeLa cells, 24 h, all concentrations tested (up to 40 µM), MTT): < 50%
Effect on cell viability ([8]; HeLa, 2.5 µM, 24 h treatment): no significant effect
Antiproliferative effects [11]: lacks antiproliferative effects
Degradation of PARP-1 ([12]; 24 h, all concentrations tested): did not induce any degradation
Concentration giving significant PARP-1 degradation ([12]; 48 h): ≥ 20 µM
IC50 ([9]; MDA-MB-231, 24 h): 1.3 µM
Concentration that nearly abolishes Akt S129 phosphorylation ([9]; MDA, 24 h treatment): 5 µM
IC50 ([10]; Homo sapiens, HeLa, read-out: IC50 pS13 cdc37 phosphorylation, HeLa cells, 24 h, densitometry of Western blot): 9 µM
IC50 ([10]; read-out: IC50 pS13 cdc37 phosphorylation, HeLa cells, densitometry of Western blot): 9.9 µM
